Assay results taken from patent publication US20140357577A1, “HIV Membrane Fusion Inhibitors” (priority 2011, published 2014).
Starred links: 1 amine or outer side, 2 acyl side, 3 side chain; linkers in the order of their positions; H or OH if unused. *: point of attachment. Suc = O=C(CCC(=O)[*:2])[*:1]; Isovaleryl = CC(C)CC(=O)*; Pentanoyl = CCCCC(=O)*; Butyryl = CCCC(=O)*

Tests used:
HIV-IIIB + 50% HS = assay: Standard AVE (50% Human Serum), HIV-1 replication assay in MT4-LTR-EGFP cells; assay type: cell-based; conditions: fold change vs EC50 in the assay without human serum
Description: The HIV-1 replication assay (with 50% human serum) measures virus replication as an induction of enhanced green fluorescent protein (EGFP) expression, in the presence of 50% human serum. The indicator MT4-LTR-EGFP cells contain an EGFP gene under the control of the HIV-1 LTR promoter sequence. Successful HIV-1 infection results in viral Tat protein expression and subsequent induction of EGFP expression. Compounds/peptides inhibiting HIV-1 infection are expected to reduce EGFP expression as compared to the untreated HIV-infected control. Compounds/peptides binding to human serum are expected to have a reduced activity for inhibiting the virus in the assay.
Serial 4-fold dilutions of test compounds/peptides were mixed with HIV-1 and MT4-LTR-EGFP cells and incubated at 37° C., in the presence of 50% human serum. After 3 days, the wells were examined for EGFP expression using an argon laser-scanning microscope. The effective compound/peptide concentration inhibiting 50% of the virus-induced EGFP signal (EC50) was determined by linear interpolation of the EGFP signal vs. logarithm of the compound concentration; T20, C34 and Sifuvirtide were added as reference compounds. Results were reported as a fold change in EC50, as compared with the acquired EC50 in the assay without human serum.

[1] = tested on: HIV wild type virus strain IIIB; assay: Standard Anti-Viral-Experiment (AVE), HIV-1 replication assay in MT4-LTR-EGFP cells, wild type IIIB; assay type: cell-based; conditions: 3 days, EGFP signal
In short: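 MT4-LTR-EGFP cells infected with HIV-1 IIIB, HXB2D or HXB2D gp41 mutants V38A/Q40H alongside serial 4-fold compound dilutions, 3 days at 37° C. EGFP read by laser-scanning microscopy; EC50 by linear interpolation against log concentration. Mutant results given as fold change in EC50 versus wild-type HXB2D.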

[2] = tested on: HIV mutant virus strain HXB2D with mutation Q40H in the gp41 gene; assay: Standard AVE, HXB2D site directed mutant Q40H; assay type: cell-based, HIV-1; conditions: fold change vs wild type strain HXB2D
Description: • Standard Anti-Viral-Experiment “AVE” (wild type HIV strain IIIB+HIV strain HXB2D side directed mutants V38A and Q40H)
The HIV-1 replication assay measures virus replication (HIV wild type virus strain 111B or HXB2D, or a HIV mutant virus strain HXB2D with mutation V38A or Q40H in the gp41 gene) as an induction of enhanced green fluorescent protein (EGFP) expression. The indicator MT4-LTR-EGFP cells contain an EGFP gene under the control of the HIV-1 LTR promoter sequence. Successful HIV-1 infection results in viral Tat protein expression and subsequent induction of EGFP expression. Compounds/peptides inhibiting HIV-1 infection are expected to reduce EGFP expression as compared to the untreated HIV-infected control.
Serial 4-fold dilutions of test compounds/peptides were mixed with HIV-1 (IIIB, HXB2D, or a HXB2D mutant virus (V38A or Q40H)) and MT4-LTR-EGFP cells and incubated at 37° C. After 3 days, the wells were examined for EGFP expression using an argon laser-scanning microscope. The effective compound/peptide concentration inhibiting 50% of the virus-induced EGFP signal (EC50) was determined by linear interpolation of the EGFP signal vs. logarithm of the compound concentration; (T20, C34 and Sifuvirtide were added as reference compounds). For the V38A and Q40H mutant viruses, results were reported as a fold change in EC50, as compared with a drug-susceptible wild type strain HXB2D, which forms the backbone of the mutant virus. • Standard AVE (50% Human Serum)

Substance	HIV-IIIB + 50% HS (Fold change in EC50) (HIV-IIIB + 50% HS)	EC50 [1] [nM]	HIV-HXB2D Q40H mutant (fold change in EC50) [2]
Suc-ANYLALIEALIRAAQEQQEKNEAALR-NH2 (SMILES CC[C@H](C)[C@H](NC(=O)[C@H](CC(C)C)NC(=O)[C@H](C)NC(=O)[C@H](CCC(=O)O)NC(=O)[C@@H](NC(=O)[C@H](CC(C)C)NC(=O)[C@H](C)NC(=O)[C@H](CC(C)C)NC(=O)[C@H](Cc1ccc(O)cc1)NC(=O)[C@H](CC(N)=O)NC(=O)[C@H](C)NC(=O)CCC(=O)O)[C@@H](C)CC)C(=O)N[C@@H](CCCNC(=N)N)C(=O)N[C@@H](C)C(=O)N[C@@H](C)C(=O)N[C@@H](CCC(N)=O)C(=O)N[C@@H](CCC(=O)O)C(=O)N[C@@H](CCC(N)=O)C(=O)N[C@@H](CCC(N)=O)C(=O)N[C@@H](CCC(=O)O)C(=O)N[C@@H](CCCCN)C(=O)N[C@@H](CC(N)=O)C(=O)N[C@@H](CCC(=O)O)C(=O)N[C@@H](C)C(=O)N[C@@H](C)C(=O)N[C@@H](CC(C)C)C(=O)N[C@@H](CCCNC(=N)N)C(N)=O) [Peptide 7]	0.6	2	764
Suc-ACYLACIEELIRKAQEQQEKNEAALr-NH2 [Peptide 34]	0.3	2	265
Isovaleryl-ANYAALIEALIRAAQEQQEKNEAALR-NH2 (SMILES CC[C@H](C)[C@H](NC(=O)[C@H](CC(C)C)NC(=O)[C@H](C)NC(=O)[C@H](CCC(=O)O)NC(=O)[C@@H](NC(=O)[C@H](CC(C)C)NC(=O)[C@H](C)NC(=O)[C@H](C)NC(=O)[C@H](Cc1ccc(O)cc1)NC(=O)[C@H](CC(N)=O)NC(=O)[C@H](C)NC(=O)CC(C)C)[C@@H](C)CC)C(=O)N[C@@H](CCCNC(=N)N)C(=O)N[C@@H](C)C(=O)N[C@@H](C)C(=O)N[C@@H](CCC(N)=O)C(=O)N[C@@H](CCC(=O)O)C(=O)N[C@@H](CCC(N)=O)C(=O)N[C@@H](CCC(N)=O)C(=O)N[C@@H](CCC(=O)O)C(=O)N[C@@H](CCCCN)C(=O)N[C@@H](CC(N)=O)C(=O)N[C@@H](CCC(=O)O)C(=O)N[C@@H](C)C(=O)N[C@@H](C)C(=O)N[C@@H](CC(C)C)C(=O)N[C@@H](CCCNC(=N)N)C(N)=O) [Peptide 17]	0.9	24	>37
Suc-ECYLRCIEELIRKAQEQQEKNEAALR-NH2 (cysteine pairing not given here) [Peptide 29]	0.6	0.8	98
ENYLALIEALIRAAQEQQEKNEAALR [Peptide 8]	0.4	2	900
ANYAALIEALIRAAQEQQEKNEAALR [Peptide 2]	1	77	>28
Suc-ACYLACIEALIRAAQEQQEKNEAALR-NH2 (cysteine pairing not given here) [Peptide 43]	1	2	103
ENYLALIEALIRAAQEQQEKNEAALL [Peptide 9]	0.4	3	1196
ANYLALIEELIRAAQEQQEKNEAALR [Peptide 10]	0.4	4	>695
Ac-ACYLACIEALIRKAQEQQEKNEAALR-NH2 [Peptide 48]	1	3	62
Pentanoyl-ECYLRCIEELIRKAQEQQEKNEAALR-NH2 (cysteine pairing not given here) [Peptide 91]	5	1	5
SUC-ECYLACIEALIRAAQEQQEKNEAALR-NH2 (Suc-ECYLACIEALIRAAQEQQEKNEAALR-NH2; cysteine pairing not given here) [Peptide 33]	0.6	1	269
Pentanoyl-ENYLALIEELIRKAQEQQEKNEAALR-NH2 (SMILES CCCCC(=O)N[C@@H](CCC(=O)O)C(=O)N[C@@H](CC(N)=O)C(=O)N[C@@H](Cc1ccc(O)cc1)C(=O)N[C@@H](CC(C)C)C(=O)N[C@@H](C)C(=O)N[C@@H](CC(C)C)C(=O)N[C@H](C(=O)N[C@@H](CCC(=O)O)C(=O)N[C@@H](CCC(=O)O)C(=O)N[C@@H](CC(C)C)C(=O)N[C@H](C(=O)N[C@@H](CCCNC(=N)N)C(=O)N[C@@H](CCCCN)C(=O)N[C@@H](C)C(=O)N[C@@H](CCC(N)=O)C(=O)N[C@@H](CCC(=O)O)C(=O)N[C@@H](CCC(N)=O)C(=O)N[C@@H](CCC(N)=O)C(=O)N[C@@H](CCC(=O)O)C(=O)N[C@@H](CCCCN)C(=O)N[C@@H](CC(N)=O)C(=O)N[C@@H](CCC(=O)O)C(=O)N[C@@H](C)C(=O)N[C@@H](C)C(=O)N[C@@H](CC(C)C)C(=O)N[C@@H](CCCNC(=N)N)C(N)=O)[C@@H](C)CC)[C@@H](C)CC) [Peptide 52]	2	1	38
Butanoyl-ECYLACIEELIRKAQEQQEKNEAALR-NH2 (Butyryl-ECYLACIEELIRKAQEQQEKNEAALR-NH2; cysteine pairing not given here) [Peptide 40]	1	1	84
Pentanoyl-ANYAALIEALIRKAQEQQEKNEAALR-NH2 (SMILES CCCCC(=O)N[C@@H](C)C(=O)N[C@@H](CC(N)=O)C(=O)N[C@@H](Cc1ccc(O)cc1)C(=O)N[C@@H](C)C(=O)N[C@@H](C)C(=O)N[C@@H](CC(C)C)C(=O)N[C@H](C(=O)N[C@@H](CCC(=O)O)C(=O)N[C@@H](C)C(=O)N[C@@H](CC(C)C)C(=O)N[C@H](C(=O)N[C@@H](CCCNC(=N)N)C(=O)N[C@@H](CCCCN)C(=O)N[C@@H](C)C(=O)N[C@@H](CCC(N)=O)C(=O)N[C@@H](CCC(=O)O)C(=O)N[C@@H](CCC(N)=O)C(=O)N[C@@H](CCC(N)=O)C(=O)N[C@@H](CCC(=O)O)C(=O)N[C@@H](CCCCN)C(=O)N[C@@H](CC(N)=O)C(=O)N[C@@H](CCC(=O)O)C(=O)N[C@@H](C)C(=O)N[C@@H](C)C(=O)N[C@@H](CC(C)C)C(=O)N[C@@H](CCCNC(=N)N)C(N)=O)[C@@H](C)CC)[C@@H](C)CC) [Peptide 16]	0.8	8	>108
Ac-ECYLRCIEALIRAAQEQQEKNEAALR-NH2 [Peptide 50]	2	2	33
SUC-CYLACIEALIRAAQEQQEKNEAALR-NH2 (Suc-CYLACIEALIRAAQEQQEKNEAALR-NH2; cysteine pairing not given here) [Peptide 26]	1	1	311
Suc-ENYLRLIEELIRKAQEQQEKNEAALR-NH2 (SMILES CC[C@H](C)[C@H](NC(=O)[C@H](CC(C)C)NC(=O)[C@H](CCC(=O)O)NC(=O)[C@H](CCC(=O)O)NC(=O)[C@@H](NC(=O)[C@H](CC(C)C)NC(=O)[C@H](CCCNC(=N)N)NC(=O)[C@H](CC(C)C)NC(=O)[C@H](Cc1ccc(O)cc1)NC(=O)[C@H](CC(N)=O)NC(=O)[C@H](CCC(=O)O)NC(=O)CCC(=O)O)[C@@H](C)CC)C(=O)N[C@@H](CCCNC(=N)N)C(=O)N[C@@H](CCCCN)C(=O)N[C@@H](C)C(=O)N[C@@H](CCC(N)=O)C(=O)N[C@@H](CCC(=O)O)C(=O)N[C@@H](CCC(N)=O)C(=O)N[C@@H](CCC(N)=O)C(=O)N[C@@H](CCC(=O)O)C(=O)N[C@@H](CCCCN)C(=O)N[C@@H](CC(N)=O)C(=O)N[C@@H](CCC(=O)O)C(=O)N[C@@H](C)C(=O)N[C@@H](C)C(=O)N[C@@H](CC(C)C)C(=O)N[C@@H](CCCNC(=N)N)C(N)=O) [Peptide 20]	1	0.7	80
